This passage reports cytotoxicity results from ChEMBL document CHEMBL3507680, “University of Dundee, Gates Library screen for HepG2 cell viability”.

Structures are written as SMILES.

The data set is described as follows: Human HepG2 cell viability assay in 384 well format. The data set is classed as toxicity, cell-based. On the set-up: dose 125 nL, time 70.5 hour; concentration not given beside the values. The settings on record: HepG2 cells, read-out: Inhibition.
As to `Cc1ccc(C(=O)N2CCCCC2CN(C)C)cc1` (stereo not given), the cytotoxicity at 70.5 h was found to be 4.31%.
As to `COCCCNC(=O)CN(C)C(C)c1nc(C)no1` (stereo not given), the cytotoxicity at 70.5 h is -3.18%.
In the case of `CC(C#N)CN(C)C(=O)CCNC(=O)C(C)(C)C` (stereo not given) it was 0.0301%; in that of `Cc1nc(CN2CCOC3(CCCC3)C2)oc1C`, -4.4%; in that of `CCN1CCOC(CNCc2cnc(C(C)(C)C)s2)C1` (stereo not given), -5.25%.
Turning to `CNC(=O)CN1CCC(CN(C)Cc2ccccc2N(C)C)CC1`, the cytotoxicity at 70.5 h amounted to 1.48%.
With `CC(O)CN(C)C(=O)CCNC(=O)OC(C)(C)C` (stereo not given), the cytotoxicity at 70.5 h was -3.37%.
For the compound `COc1c(Cl)cc(Cl)cc1CN1CCC(C(N)=O)C1` (stereo not given), the cytotoxicity at 70.5 h was 8.49%.
In the case of `COc1ccccc1/C=C/CNCC1CCc2nncn2C1` (stereo not given) it was 8.27%; in that of `Cc1cc(C)cc(NCCC(=O)NC2CCN(C(=O)C3CC3)CC2)c1`, -2.45%; in that of `CCOC1CCN(C(=O)c2ccc(-c3cccc(C)c3)[nH]c2=O)CC1`, -8.75%.
In the case of `Cc1cccc(-c2ccc(C(=O)N3CCN(C(C)C)CC3)c(=O)[nH]2)c1` it was -2.78%; in that of `O=C(c1ccc(-c2ccccc2)[nH]c1=O)N1CCN(C2CC2)CC1`, -8.84%.
On to `COc1ccccc1CC(C)CC(=O)NC(C)C` (stereo not given), for which the cytotoxicity at 70.5 h was found to be 0.743%.
In the case of `CCOc1c(F)cccc1C(=O)N(C)CCc1ccccn1`, the cytotoxicity at 70.5 h came out at 36.5%.
Consider `CS(=O)(=O)CCn1ccc(NC(=O)Cc2ccccc2Cl)n1`, for which the cytotoxicity at 70.5 h is -1.99%.
Regarding `O=C(C(c1ccccc1)S(=O)(=O)c1ccccn1)N1CCCCC1` (stereo not given), the cytotoxicity at 70.5 h is -7.07%.
Take `NC(=O)C1CCN(C(=O)NC2CCN(CC3CCCC3)C2)CC1` (stereo not given): the cytotoxicity at 70.5 h came to 9.67%.
As for `CN(C)Cc1ccnc(NS(=O)(=O)Cc2cccc(F)c2)c1`, the cytotoxicity at 70.5 h worked out at 1.98%.
For `CCN(C)S(=O)(=O)NCC(O)c1c(Cl)cccc1Cl` (stereo not given), the cytotoxicity at 70.5 h was found to be 18.4%.
Consider `NC(=O)c1cn(CC2CCC2)c(C2CC2)n1`, for which the cytotoxicity at 70.5 h was 3.19%.
In the case of `Cn1cc(CNc2nc3cc(Cl)ccc3n2C)cn1` it was -0.411%.
With `Cc1c(F)cccc1S(=O)(=O)Nc1noc(C(C)C)n1`, the cytotoxicity at 70.5 h is -7.44%.
Regarding `Cc1nc(NS(=O)(=O)c2cccc(F)c2C)no1`, the cytotoxicity at 70.5 h was 6.79%.
Regarding `C=C(C)Cn1cc(C(N)=O)nc1C1CC1`, the cytotoxicity at 70.5 h is 20.9%.
Turning to `CC(C)c1nnc2n1CC(CNC/C=C/c1ccccc1)CC2` (stereo not given), the cytotoxicity at 70.5 h is -7.41%.
For `Cc1nn(C)c2ncc(CNCCc3ccccn3)cc12`, the cytotoxicity at 70.5 h is -8.59%.
As for `CN1CCN(C)C(CNC(=O)N(C)Cc2ccc(Cl)c(F)c2)C1` (stereo not given), the figure is -11.2%; as for `CCOc1c(F)cccc1C(=O)N(C)CCn1cccn1`, 7.19%.
In the case of `CC(C)c1cc(NC(=O)CNC2CCc3ncnn3C2)on1` (stereo not given) it was 11.4%; in that of `CCOC(C)c1nccn1CCC(=O)Nc1cc(C)on1` (stereo not given), 6.06%.
Regarding `CC(C)c1nc(NS(=O)(=O)c2ccccc2Cl)no1`, the cytotoxicity at 70.5 h came out at 0.444%.
In the case of `CCc1cc(C)c(C(=O)N2CCCC(c3nnn[nH]3)C2)o1` (stereo not given) it was -0.273%.
In the case of `Cc1n[nH]c(C2CN(CCNC3CCCCC3)CCO2)n1` (stereo not given) it was 3.49%; in that of `CC(C(=O)NC(C)(C)C)S(=O)(=O)Cc1noc(C(C)(C)C)n1` (stereo not given), -5.8%; in that of `Cc1ccc(CN(c2cc(C)nc3nc(C(F)(F)F)nn23)C2CC2)cc1`, 0.825%.
With `CC(=O)C(Cc1ccccc1)NC(=O)CSc1nccn1C1CC1` (stereo not given), the cytotoxicity at 70.5 h was -0.98%.
As for `Cc1cc(N(Cc2ccccn2)C2CC2)n2nc(C(F)(F)F)nc2n1`, the figure is -0.852%; as for `O=C1CSc2ccc(C(=O)N3CCCC(n4ccnc4)C3)cc2N1` (stereo not given), -1.51%.
In the case of `CC(=O)NCc1ccc(S(=O)(=O)NC(=O)c2ccc3c(c2)COC3)s1` it was 0.101%; in that of `N#CCCN(CC1CCOC1)Cn1ccc(-c2ccccc2)n1` (stereo not given), -0.616%; in that of `CC(C)(C)c1cnc(CN2CCCS(=O)(=O)CC2)o1`, -1.34%.
In the case of `CN1CCN(C2CCN(Cc3noc(C4CC4)n3)CC2)C1=O`, the cytotoxicity at 70.5 h is -1.19%.
As for `COCCN(c1cc(C)nc2nc(C(F)(F)F)nn12)C1CCCC1`, the cytotoxicity at 70.5 h was determined as 12.8%.
As for `CC(=O)NCc1ccc(S(=O)(=O)NC(=O)c2ccc3c(c2)COC3)cc1`, the figure is -4.89%; as for `O=C(c1cnc2n1CCCC2)N1CCCC1`, -2.75%; as for `N#CCCN(CC1CCOC1)Cn1ccc(-c2cccs2)n1` (stereo not given), 8.39%.
In the case of `Cc1nc(C)c(C(=O)N2CCc3cc(F)ccc3C2C)o1` (stereo not given) it was -4.82%; in that of `CC(NCCn1cccn1)c1cc(F)ccc1F` (stereo not given), -3.98%.
For `CC(NCCn1cccn1)c1ccc(F)cc1F` (stereo not given), the cytotoxicity at 70.5 h was -2.25%.
As for `CCCC(C)CS(=O)(=O)NCc1cccnc1N(C)C` (stereo not given), the figure is -1.93%; as for `CNc1ncc(C(=O)N2CCCC(Cc3ccccc3OC)C2)s1` (stereo not given), 20.4%.
With `c1cc(CNCCC2CCCO2)ccn1` (stereo not given), the cytotoxicity at 70.5 h stood at 5.59%.
In the case of `N#Cc1ccc(CN2CCCCC2Cn2cncn2)c(F)c1` (stereo not given) it was 4.33%; in that of `CC1CCCN(S(=O)(=O)NCCN/C(O)=C2/N=CC=CC2=O)C1` (stereo not given), 0.429%.
In the case of `Cc1cc(C)n(CC(C)CNC(=O)N(C)Cc2cc(C)on2)n1` (stereo not given) it was -8.81%.
`Cc1cc(C)n(CC(C)CNC(=O)CCc2ccco2)n1` (stereo not given): the cytotoxicity at 70.5 h is -6.24%.
Turning to `Cc1cc(C)n(CC(C)CNC(=O)N(C)Cc2ccco2)n1` (stereo not given), the cytotoxicity at 70.5 h was -10.5%.
For `CCN(Cc1cccc(C(N)=O)c1)c1ccccc1`, the cytotoxicity at 70.5 h was found to be 12.2%.
In the case of `Cc1nn(C)c2ncc(NC(=O)N(C)Cc3cnn(C)c3)cc12` it was -14%.
As for `CCN(CC1CCOC1)S(=O)(=O)Cc1ccccc1Cl` (stereo not given), the figure is -6.21%.
As to `CC(=O)N(C)CC(=O)NC(CC(C)C)c1cccs1` (stereo not given), the cytotoxicity at 70.5 h is -5.7%.
As for `Cc1nc2ccccc2nc1CN1CCc2c(nc(C3CC3)n2C)C1`, the figure is -0.539%.
On to `COc1ccc(C(CC(=O)O)NC(=O)CCc2cccs2)cc1OC` (stereo not given), for which the cytotoxicity at 70.5 h was 4.75%.
As for `CC(NC(=O)NCCn1ccnc1)c1nncn1C` (stereo not given), the figure is 20.5%; as for `N#Cc1cccc(OCc2ccoc2C(=O)N2CCCCCC2)c1`, -2.71%; as for `Cc1csc(C2NC3(CCCC3)C(=O)N2CC2CC2)n1` (stereo not given), 4.39%.
For the compound `Cc1nc(CN2CCCc3cc(OC(F)(F)F)ccc32)oc1C`, the cytotoxicity at 70.5 h was 4.79%.
Turning to `COc1ccc2c(c1)CCCN2Cc1nc(C)c(C)o1`, the cytotoxicity at 70.5 h is -4.99%.
`CCc1nc(C2NC3(CCCC3)C(=O)N2CC2CC2)cs1` (stereo not given): the cytotoxicity at 70.5 h came to 22.7%.
As for `O=C(c1ccc(CN2CCCCC2)cc1)N1CCCC1c1cccs1` (stereo not given), the figure is -0.233%.
As for `Cc1nc(C2NC3(CCCC3)C(=O)N2CC2CC2)cs1` (stereo not given), the figure is -5.61%.
As for `CCCN(Cc1ccccc1O)S(=O)(=O)N(C)CC`, the figure is -6.19%; as for `CCC(C)S(=O)(=O)N(Cc1ccco1)Cc1ccccc1O` (stereo not given), -10.4%; as for `COCCN1CCC(CNC(=O)c2c[nH]c(=O)c(Cl)c2)CC1`, -10.5%.
